Data published in patent publication US9409146B2, “Method for treating amyloid disease” (New York University, priority 2002, dated 2016).

Key:
[1] = tested on: Tg2576 APP mouse model; test: Antibody levels in plasma by ELISA after immunization; assay type: in vivo; details: for IgM response compared to IgG response: plasma at 1:500 dilution
Procedure: (§1) Briefly, mice received their first immunization with K6Aβ1-30-NH2(E18E19) at 10.5-13 months of age (peptide: n=23; vehicle: n=24). The animals were bled prior to vaccination, 3 months following the first injection and at the time of sacrifice at 18 to 21 months. The mice were tested in the radial arm maze, subsequently perfused and their brains processed as described (Sigurdsson et al., Am. J. Pathol. 2001; 159:439-4471) (peptide: n=18; vehicle: n=18).
K6Aβ1-30-NH2(E18E19) was supplied as trifluoroacetic acid salt. The immunization procedure was performed as previously described by us (Sigurdsson et al., Am. J. Pathol. 2001; 159:439-4471) which is the same protocol as described by Schenk and colleagues (Schenk et al., Nature 1999; 400:173-1773) except that the peptide was not incubated overnight at 37° C. before injection. Briefly, the peptide was dissolved in phosphate-buffered saline (PBS) at a concentration of 2 mg/ml and then mixed 1:1 (v/v) with the adjuvant or PBS. Complete Freund's adjuvant was used for the first injection, incomplete Freund's adjuvant for the next three injections, and PBS from the fifth injection forward. The mice received a subcutaneous injection of 100 μl of the mixture (ie, 100 μg/100 μl) followed by a second injection 2 weeks later, and then monthly thereafter. Vaccination using the K6Aβ1-30-NH2(E18E19) peptide started when the mice were 10.5-13 months of age and the mice were sacrificed at 18-21 months of age.
Antibody levels were determined by 1:500 dilutions of plasma using an enzyme-linked immunosorbent assay (ELISA) as described previously (Jimenez-Huete et al., Alzheimers Reports 1998; 1:41-47) in which Aβ or its derivative is coated onto microtiter wells. The antibodies were detected by a goat anti-mouse IgG linked to a horseradish peroxidase (Amersham Pharmacia Biotech, Piscataway, N.J.) or a goat anti-mouse IgM peroxidase conjugate (Sigma, A8786), and tetramethyl benzidine (Pierce, Rockford, Ill.) was the substrate.

[2] = tested on: Tg2576 APP mouse model; test: Radial arm maze after immunization of Tg2576 mice; assay type: in vivo
Procedure: as §1
The vaccination was performed in the Tg2576 APP mouse model developed by Karen Hsiao and colleagues (Hsiao et al., Science 1996:274:99-1022). These mice develop Aβ plaques as early as at 11 to 13 months of age. The animals were maintained on a 12-hour light-dark cycle, and had access to food and water ad libitum. The animal care was in accordance with institutional guidelines.
K6Aβ1-30-NH2(E18E19) was supplied as trifluoroacetic acid salt. […]
Animals were kept in test room throughout the experiment, behind a cover to prevent view of the apparatus and room. […] Total number of errors and time to enter all eight arms were recorded. […]
(§2) The data for the amyloid burden within the brain were analyzed by a Student's t-test, one-tailed (GraphPad Prism). The radial arm maze data was analyzed by two-way ANOVA repeated measures. […] Correlation was determined by calculating the Pearson r correlation coefficient.

[3] = tested on: Aβ plaques; test: Histology and image analysis of Aβ plaques in brain (6E10 staining); assay type: in vivo, mouse
Procedure: as §1
Mice were anesthetized with sodium pentobarbital (150 mg/kg, intraperitoneally), perfused transaortically with phosphate buffer and the brains processed as previously described (Sigurdsson et al., Neurobiol. Aging 1996; 17:893-901) The right hemisphere was immersion fixed in periodate-lysine-paraformaldehyde (PLP), whereas the left hemisphere was snap-frozen for measurements of Aβ3 levels using established ELISA methods (Mehta et al., Arch. Neurol. 2000; 57:100-105). Serial coronal sections (40 μm) were cut and every fifth section was stained with 6E10 which recognizes Aβ and stains both pre-amyloid and Aβ plaques (Kim et al., Neurosci Res Comm 1990; 7:113-122). […]
Immunohistochemistry of tissue sections was quantified with a Bioquant image analysis system, and unbiased sampling was used (West et al., Trends Neurosci. 1999; 22:51-61). […] Cortical area analyzed was dorsomedially from the cingulate cortex and extended ventrolaterally to the rhinal fissure within the right hemisphere. The area of the grid was 800×800 μm^2 and amyloid load was measured in 20 frames per mouse (each: 640×480 μm^2), chosen randomly. […] The number of plaques were also counted and the plaques were divided into three groups based on their size (small: 0.01-50 μm^2; medium: 50.01-1000 μm^2; large: >1000 μm^2).
as §2

[4] = tested on: immobilized Aβ40 and Aβ42 peptides; test: Solid-phase binding assay (ELISA) of apoE preparations to immobilized Aβ peptides; details: delipidated or lipidated (HDL/r-HDL) apoE3 and apoE4, 0-150 nM, 3 h
Procedure: The binding of apoE to Aβ species was studied by ELISA using immobilized freshly prepared (non-aggregated) or 72-h-aggregated Aβ40 and Aβ42 and apoE3 or apoE4 isoforms with different degrees of lipidation. Polystyrene microtitre plates (Immulon2; Dynex Technology, Chantilly, Va., U.S.A.) were coated for 2 h. at 37° C. with either fresh or aggregated Aβ40 and Aβ42 (40(0 ng in 100 μl of 0.1 M NaHCO3, pH 9.6, per well). Under these conditions, 10 ng of fresh Aβ40, 9.6 ng of fresh Aβ42, 10.2 ng of aggregated Aβ40 and 10.9 ng of aggregated Aβ42 (representing 2.5, 2.4, 2.6 and 2.7% of the peptide offered, respectively) were coated to the microtitre wells, as determined by a modification of the Quantigold assay (Diversified Biotech, Boston, Mass., U.S.A.) for protein quantification. After blocking with Superblock (Pierce), increasing concentrations of apoE (0-150 nM in TBS; 100 μl per well) were added to the Aβ-coated wells and incubated for 3 h. at 37° C. Bound apoE was detected with monoclonal anti-apoE antibody (3D12, 1:1000) followed by alkaline-phosphatase-conjugated goat F(ab′)2 anti-mouse IgG (1:3000; BioSource International, Camarillo, Calif., U.S.A.). The reaction was developed for 30 min. with p-nitrophenyl phosphate in diethanolamine buffer (Bio-Rad, Hercules, Calif., U.S.A.), and quantified at 405 nm on a Microplate Reader (Cambridge Technology, Watertown, Mass., U.S.A.). […]

immobilized Aβ40 and Aβ42 peptides, sequence (P05067 672-711 limits assumed): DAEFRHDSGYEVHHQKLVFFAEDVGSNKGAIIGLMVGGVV

| Substance | cross-reactivity of generated IgM antibodies ([1]; IgM antibodies after immunization) | IgM response compared to IgG response [1] | IgM response compared to IgG response ([1]; listed as K6Aβ1-30-NH2(E18E19)) | errors in the radial arm maze compared to vehicle-treated controls ([2]; Tg2576 transgenic mice, two-way ANOVA repeated measures, p<0.05) | radial arm maze performance compared to day 1 ([2]; immunized mice, p<0.01-0.05) | effect on large plaques ([3]; large: >1000 μm^2) | reduction of medium sized plaques ([3]; medium: 50.01-1000 μm^2, p=0.04) | reduction of small plaques ([3]; small: 0.01-50 μm^2, p=0.02) | binding of apoE to Aβ [4] |
| --- | --- | --- | --- | --- | --- | --- | --- | --- | --- |
| K6Aβ1-30(E18E19): first 30 amino acids of amyloid-β with glutamate substituted for valine and phenylalanine in positions 18 and 19 | cross-reacted with Aβ1-40 | substantially more pronounced IgM response compared to IgG response | high IgM response and low IgG response | significantly fewer errors | showed improvements on days 3, 5, and 7-9 | not significantly (N.S.) affected | 29% | 34% | – |
| apoE: human apoE3 or apoE4 from Sf9, HEK-293 or RAW-264 cells, delipidated or in HDL/r-HDL particles | – | – | – | – | – | – | – | – | high affinity |
